Consider six molecules from patent publication US20240108607A1, “METHOD FOR MANUFACTURING NOVEL NITROGEN-CONTAINING COMPOUND OR SALT THEREOF AND MANUFACTURING INTERMEDIATE OF NOVEL NITROGEN-CONTAINING COMPOUND OR SALT THEREOF” (FUJIFILM Corporation, priority 2015, published 2024).

Usually Vss stands for a proportionality between amount in the body and measured concentration, not a real space.

Where two headings read alike, the source gives them in different places.

Data set [1] in a line: Radiochemical purity after standing at room temperature (reversed-phase TLC). The class given is physicochemical. How it is done:
A indium [^111In] chloride solution (80 MBq, 100 μL) was added to a mixture of the compound A (8.5 μg) and a 0.2 mol/L sodium acetate buffer solution (pH 4.0) (1.5 mL). The solution was heated to 100° C. for 15 minutes and then left to stand for 5 minutes at room temperature, thereby obtaining [^111In]-(compound A). […] The radiochemical purity measured immediately after the compound was prepared and measured after 24 hours at room temperature was equal to or higher than 95%.
A yttrium [^90Y] chloride solution (700 MBq, 240 μL) was added to a mixture of the compound (79 μg), gentisic acid (1.8 mg), a 0.6 mol/L sodium acetate buffer solution (pH 4.0, 120 μL), and 0.4 mol/L aqueous sodium hydroxide solution (24 μL). The solution was heated to 100° C. for 20 minutes and then left to stand for 5 minutes at room temperature, thereby obtaining [90^Y]-(compound A). […] The radiochemical purity measured immediately after the compound was prepared and measured after 24 hours at room temperature was equal to or higher than 95%.
A copper [^64Cu] chloride solution (pH 5, 35 MBq, 55 μL) was added to a mixture of the compound A (5.8 μg) and 0.2 mol/L sodium acetate buffer solution (pH 4.0, 219 μL). The solution was heated to 100° C. for 15 minutes and left to stand for 5 minute at room temperature, thereby obtaining [^64Cu]-(compound A). […] The radiochemical purity measured immediately after the compound was prepared and measured after 22 hours at room temperature was equal to or higher than 90%.
A 0.2 mol/L sodium acetate buffer solution of Copper [^64Cu] chloride (pH 4.0) (40 MBq, 155 μL) was added to a mixture of the compound B (4.2 μg), gentisic acid (1 mg), and a 0.2 mol/L sodium acetate buffer solution (pH 4.0) (5.0 μL). The solution was heated to 100° C. for 15 minutes and left to stand for 5 minutes at room temperature, thereby obtaining [^64Cu]-(compound B). […] The radiochemical purity measured immediately after the compound was prepared and measured after 24 hours at room temperature was equal to or higher than 90%.
A gallium [^67Ga] chloride solution (200 MBq, 63 μL) was added to a mixed solution of the compound A (21 μg), gentisic acid (1.0 mg), a 0.2 mol/L sodium acetate buffer solution (pH 4.0, 730.7 μL), and 4.5 mol/L aqueous sodium hydroxide solution (6.3 μL). The solution was heated to 100° C. for 15 minutes and then left to stand for 5 minutes at room temperature, thereby obtaining [^67Ga]-(compound A).
A lutetium [^177Lu] chloride solution (666 MBq, 333 μL) dissolved in a 0.2 mol/L sodium acetate buffer solution (pH 4.0) was added to a mixed solution of the compound A (70.0 μg), gentisic acid (1.8 mg), and a 0.2 mol/L sodium acetate buffer solution (pH 4.0, 83.3 μL). The solution was heated to 100° C. for 15 minutes and then left to stand for 5 minutes at room temperature, thereby obtaining [^177Lu]-(compound A).
A gallium [^67Ga] chloride solution (40 MBq, 11.7 μL) was added to a mixed solution of the compound B (4.1 μg), gentisic acid (1.0 mg), a 0.2 mol/L sodium acetate buffer solution (pH 4.5, 147.13 μL), and 4.5 mol/L aqueous sodium hydroxide solution (1.17 μL). The solution was heated to 100° C. for 15 minutes and then left to stand for 5 minutes at room temperature, thereby obtaining [^67Ga]-(compound B).

Data set [2] in a line: Absorbed dose in a human being simulated with OLINDA/EXM 1.0 from monkey organ distribution. On the procedure:
(§1) Blood was collected from a crab-eating macaque over time, and by using [^111In]-(compound A), from the radioactivity concentration in the blood, kinetic parameters of the compound in blood were calculated by OLINDA/EXM 1.0. Furthermore, by using [^111In]-(compound A), from the organ distribution obtained by imaging, the absorbed dose of each organ obtained in a case where the compound is administered to a human being was calculated using OLINDA/EXM 1.0. [^111In]-(compound A) (98 MBq/9.3 μg) was administered to a crab-eating macaque (Hamri Co., Ltd., males, 3-year-old, 3.4 kg) under anesthesia. After the administration, blood was collected over time, and imaging was performed using a gamma camera. The blood was collected 10, 30, and 60 minutes after the administration and 2, 4, 5, 6, 24, 48, 72, and 144 hours after the administration. Regarding the imaging, after 1, 2, 4, 6, 24, 48, 72, and 144 hours, planar imaging was performed using a gamma camera (Symbia, Siemens Healthcare GmbH). Regarding the anesthesia, the animal was anesthetized with ketamine at 20 mg/kg before the administration of [^111In]-(compound A) and kept anesthetized until the end of imaging, which was continued for 6 hours after the administration, by inhalation anesthesia (isofluran 2 to 3%, 5 to 8 L/min). After 24 hours, ketamine (20 mg/kg) and xylazine (2 mg/kg) were administered to perform blood collection and imaging.
(§2) Furthermore, by using exposure dose analysis software OLINDA/EXM 1.0, the absorbed dose in a human being was simulated using each of the labeled compounds, and the results are shown below.

The nature of data set [3]: Monkey blood kinetics and planar imaging. The data set is classed as in vivo, crab-eating macaque. How it is done:
Test Example 9 Imaging of Monkey by Using [^111In]-(Compound A)
as §1
The kinetic parameters in blood are also shown below.
as §2

Data set [4] concerns U87MG cells. The data set is described as follows: Radioactivity concentration of labeled compounds in tumor, U87MG subcutaneous transplantation. The class given is in vivo, mice (Balb/c AJcl-nu/nu). Particulars: caudal vein, 111In 740 kBq, 64Cu and 90Y 500 kBq. How it is done:
Test Example 3 Evaluation based on radioactivity concentration of ^111In-labeled compound, ^64Cu-labeled compound, and ^90Y-labeled compound in tumor
After 2 to 3 weeks, at a point in time when the tumor volume became 200 to 500 mm^3, 3 mice were sorted into one group at each point in time. The ^111In-labeled compound (740 k Bq) was administered into the caudal vein, the animals were sacrificed after a certain period of time, and the tumor was extracted. The weight of the tumor was measured, the radioactivity was measured using a gamma counter, and the radioactivity concentration in tumor (% ID/g) was calculated. For the ^64Cu-labeled compound (500 k Bq) and the ^90Y-labeled compound (500 k Bq), the radioactivity concentration in tumor (% ID/g) was calculated by the same method.

Data set [5] relates to T98G cell (human glioblastoma). Briefly: Therapeutic test on T98G subcutaneous transplantation model. The class given is in vivo, mice (Balb/c Slc-nu/nu). Particulars: 1 time; for Number of animals showing regression: 6 animals; for Inhibition rate: 13 days after administration; for Tumor volume 13 days after administration / Tumor volume At the beginning of administration: Mean ± SD. How it is done:
Test Example 8 Therapeutic Test on T98G Subcutaneous Transplantation Model Using [^90Y]-(Compound A)
After 77 days, at a point in time when the tumor volume reached 300 to 1,200 mm^3, the mice were grouped. […] The evaluation values were calculated by the same method as in Test Example 7, and the antitumor activity was evaluated.

The subject of data set [6] is U87MG cells. The note with it: 1 time; for Number of animals showing regression: 8 animals; for Inhibition rate: 16 days after administration; for Tumor volume 16 days after administration / Tumor volume At the beginning of administration: Mean ± SD. How it is done:
Test Example 7 Therapeutic Test on U87MG Subcutaneous Transplantation Model Using [^90Y]-(Compound A)
1×10^7 U87MG cells were transplanted into the subcutaneous space of the right flank of Balb/c Slc-nu/nu (males, 6-week-old, Japan SLC. Inc). After 2 weeks, the mice with a tumor having a volume of 100 to 500 mm^3 were grouped. A phosphate buffered saline (PBS) or [^90Y]-(compound A) was administered into the caudal vein, and the tumor volume was measured. At a point in time when the tumor volume of the mice of the PBS group exceeded 2,000 mm^3 which is a humane endpoint, the antitumor activity was evaluated.

As to `Cc1cc(OCCCC(=O)NCCNC(=O)[C@H](CS(=O)(=O)O)NC(=O)CN2CCN(CC(=O)[O-])CCN(CC(=O)[O-])CCN(CC(=O)[O-])CC2)cc(C)c1S(=O)(=O)N[C@@H](CNC(=O)CCCCc1ccc2c(n1)NCCC2)C(=O)O.[177Lu+3]` [[^177Lu]-(compound A)], the “radiochemical purity immediately after preparation and after 3 hours at room temperature” value in data set [1] (3 hours) is recorded as at least 95%.

As for `Cc1cc(OCCCC(=O)NCCNC(=O)C(CS(=O)(=O)O)NC(=O)CN2CCN(CC(=O)[O-])CCN(CC(=O)[O-])CCN(CC(=O)[O-])CC2)cc(C)c1S(=O)(=O)NC(CNC(=O)CCCCc1ccc2c(n1)NCCC2)C(=O)O.[111In+3]` (stereo not shown) [[^111In]-(compound A)], in data set [2], the “Absorbed dose Brain” value is listed as 0.25 mGy/MBq, the “Absorbed dose Kidney” value is reported as 1.19 mGy/MBq, the “Absorbed dose Liver” value is 0.19 mGy/MBq and the “Absorbed dose Lung” value was 0.12 mGy/MBq. In data set [2], the “Absorbed dose Red marrow” value is 0.05 mGy/MBq, the “Absorbed dose Small intestine” value was 0.05 mGy/MBq and the “Absorbed dose Whole body” value is 0.05 mGy/MBq. In data set [3] (blood, 98 MBq/9.3 μg), this molecule came in with an AUC of 0.22 % ID · h/mL, a CL of 2.17 mL/min/kg, a Cmax of 0.018 % ID/mL and a T½α of 0.46 h. In data set [3] (blood, 98 MBq/9.3 μg), this molecule yielded a T½β of 19.3 h and a Vss of 3.52 L/kg. In addition, the “integration into the bladder and the gall bladder (planar imaging)” value in data set [3] (up to 6 hours after the administration) is reported as “increased over time”. In the data set with U87MG cells [4], the “Radioactivity concentration in tumor After 4 hours” value is 11.10 % ID/g and the “Radioactivity concentration in tumor After 24 hours” value turned out to be 9.62 % ID/g. Moreover, in data set [1], the “radiochemical purity immediately after preparation and after 24 hours at room temperature” value was at least 95%.

For `Cc1cc(OCCCC(=O)NCCNC(=O)C(CS(=O)(=O)O)NC(=O)CN2CCN(CC(=O)[O-])CCN(CC(=O)[O-])CCN(CC(=O)[O-])CC2)cc(C)c1S(=O)(=O)NC(CNC(=O)CCCCc1ccc2c(n1)NCCC2)C(=O)O.[90Y+3]` (stereo not shown) [[^90Y]-(compound A)], in data set [5] (22.2 MBq), the “Number of animals showing regression” value worked out at 1, the Inhibition rate was 82%, the “Tumor volume 13 days after administration” value is given as 882 ± 399 mm^3 and the “Tumor volume At the beginning of administration” value (shortened to “Tumor volume At the beginning”) came to 755 ± 293 mm^3. In addition, in data set [5] (29.6 MBq), the “Number of animals showing regression” value turned out to be 3, the Inhibition rate is 97%, the “Tumor volume 13 days after administration” value is 755 ± 313 mm^3 and the “Tumor volume At the beginning” value worked out at 736 ± 264 mm^3. For the same molecule, in data set [2], the “Absorbed dose Brain” value was 1.96 mGy/MBq, the “Absorbed dose Kidney” value was 14.7 mGy/MBq, the “Absorbed dose Liver” value is 1.12 mGy/MBq and the “Absorbed dose Lung” value was 1.35 mGy/MBq. Further, in data set [2], the “Absorbed dose Red marrow” value is 0.06 mGy/MBq, the “Absorbed dose Small intestine” value is 0.87 mGy/MBq and the “Absorbed dose Whole body” value was 0.27 mGy/MBq. Further, in the data set on U87MG cells [4], the “Radioactivity concentration in tumor After 4 hours” value was 12.52 % ID/g and the “Radioactivity concentration in tumor After 24 hours” value is listed as 15.29 % ID/g. Besides, the “radiochemical purity immediately after preparation and after 24 hours at room temperature” value in data set [1] is listed as at least 95%. Moreover, in the data set with U87MG cells [6] (14.8 MBq), the “Number of animals showing regression” value is listed as 2, the Inhibition rate is listed as 95%, the “Tumor volume 16 days after administration” value amounted to 429 ± 188 mm^3 and the “Tumor volume At the beginning” value is on record as 351 ± 72 mm^3. Moreover, in the data set on U87MG cells [6] (22.2 MBq), the “Number of animals showing regression” value is reported as 2, the Inhibition rate was 97%, the “Tumor volume 16 days after administration” value was 386 ± 142 mm^3 and the “Tumor volume At the beginning” value amounted to 343 ± 88 mm^3.

For the molecule `Cc1cc(OCCCC(=O)NCCNC(=O)[C@H](CS(=O)(=O)O)NC(=O)CC[C@H](C(=O)[O-])N2CCN(CC(=O)[O-])CCN(CC(=O)[O-])CC2)cc(C)c1S(=O)(=O)N[C@@H](CNC(=O)CCCCc1ccc2c(n1)NCCC2)C(=O)O.[67Ga+3]` [[^67Ga]-(compound B)], in data set [1] (5.5 hours), the “radiochemical purity immediately after preparation and after 5.5 hours at room temperature” value was at least 95%.

In the case of `Cc1cc(OCCCC(=O)NCCNC(=O)[C@H](CS(=O)(=O)O)NC(=O)CN2CCN(CC(=O)[O-])CCN(CC(=O)[O-])CCN(CC(=O)[O-])CC2)cc(C)c1S(=O)(=O)N[C@@H](CNC(=O)CCCCc1ccc2c(n1)NCCC2)C(=O)O.[67Ga+3]` [[^67Ga]-(compound A)], in data set [1] (3.5 hours), the “radiochemical purity immediately after preparation and after 3.5 hours at room temperature” value is on record as at least 95%.

As to `Cc1cc(OCCCC(=O)NCCNC(=O)[C@H](CS(=O)(=O)O)NC(=O)CC[C@H](C(=O)O)N2CCN(CC(=O)[O-])CCN(CC(=O)[O-])CC2)cc(C)c1S(=O)(=O)N[C@@H](CNC(=O)CCCCc1ccc2c(n1)NCCC2)C(=O)O.[64Cu+2]` [[^64Cu]-(compound B)], in the data set on U87MG cells [4], the “Radioactivity concentration in tumor After 4 hours” value was found to be 11.19 % ID/g and the “Radioactivity concentration in tumor After 24 hours” value came out at 8.53 % ID/g. The “radiochemical purity immediately after preparation and after 24 hours at room temperature” value in data set [1] is on record as at least 90%.
